Patent publication US20080214551A1, “Treatment of Burns” (AQ+ PLC, priority 2004, published 2008)

Oc1cccc2cccnc12 [8-hydroxyquinoline]
solubility in aqueous solution: generally insoluble or only poorly soluble
